# Test results: publication PMC12749626, “Expediting hit-to-lead progression in drug discovery through reaction prediction and multi-dimensional optimization” (Nature Communications, 2025)
# Assays:
# ANGIOTENSIN II REC. 1 = ANGIOTENSIN II REC. 1 (Homo sapiens, UniProt P30556); details: 10 uM; n=2
# CYCLO OXYGENASE 2 = CYCLO OXYGENASE 2 (Homo sapiens, UniProt P35354); details: 10 uM; n=2
# HIV-1 PROTEASE = HIV-1 PROTEASE (Human immunodeficiency virus type 1 group M subtype B, UniProt P04585); details: 10 uM; n=2
# ACETYLCHOLINESTERASE = ACETYLCHOLINESTERASE (Homo sapiens, UniProt P22303); details: 10 uM; n=2
# Sequence of UniProt P22303 (P22303 32-614): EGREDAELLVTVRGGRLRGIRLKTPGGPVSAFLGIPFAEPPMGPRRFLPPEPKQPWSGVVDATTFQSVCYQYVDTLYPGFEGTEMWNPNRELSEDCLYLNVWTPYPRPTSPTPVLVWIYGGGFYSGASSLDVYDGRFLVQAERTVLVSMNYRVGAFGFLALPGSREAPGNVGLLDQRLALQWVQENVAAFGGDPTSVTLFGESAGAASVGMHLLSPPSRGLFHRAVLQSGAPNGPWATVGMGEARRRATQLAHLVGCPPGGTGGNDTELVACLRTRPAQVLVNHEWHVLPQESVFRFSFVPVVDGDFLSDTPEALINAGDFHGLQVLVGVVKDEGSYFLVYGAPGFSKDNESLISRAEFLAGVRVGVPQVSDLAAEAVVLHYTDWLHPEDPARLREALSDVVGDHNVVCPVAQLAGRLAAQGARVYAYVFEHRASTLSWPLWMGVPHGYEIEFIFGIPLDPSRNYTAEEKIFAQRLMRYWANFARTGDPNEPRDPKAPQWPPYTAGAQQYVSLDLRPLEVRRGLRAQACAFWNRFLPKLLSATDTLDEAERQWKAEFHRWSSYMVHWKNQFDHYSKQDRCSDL
# ZAP70 = ZAP70 (Homo sapiens, UniProt P43403); details: 10 uM; n=2
# C[…]. CB1 = C[…]. CB1 (Homo sapiens, UniProt P21554); details: 10 uM; n=2
# 5HT2A = 5HT2A (Homo sapiens, UniProt P28223); details: 10 uM; n=2
# CHOLECYSTOKININ 1 REC. = CHOLECYSTOKININ 1 REC. (Homo sapiens, UniProt P32238); details: 10 uM; n=2
# Sequence of UniProt P32238 (P32238 whole entry): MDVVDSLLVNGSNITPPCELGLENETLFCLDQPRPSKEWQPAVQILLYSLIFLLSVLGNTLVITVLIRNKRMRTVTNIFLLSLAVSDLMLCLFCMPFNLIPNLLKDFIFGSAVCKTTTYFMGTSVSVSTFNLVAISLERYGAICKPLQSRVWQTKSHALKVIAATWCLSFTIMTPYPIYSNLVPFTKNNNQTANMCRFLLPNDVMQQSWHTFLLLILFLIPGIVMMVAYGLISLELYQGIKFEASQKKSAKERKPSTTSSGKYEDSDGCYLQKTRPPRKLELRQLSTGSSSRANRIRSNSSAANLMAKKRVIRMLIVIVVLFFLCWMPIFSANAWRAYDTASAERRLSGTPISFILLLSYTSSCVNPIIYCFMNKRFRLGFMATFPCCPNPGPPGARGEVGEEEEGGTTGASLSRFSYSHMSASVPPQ
# […]. M1 = […]. M1 (Homo sapiens, UniProt P11229); details: 10 uM; n=2
# HISTAMINE H1 REC. = HISTAMINE H1 REC. (Homo sapiens, UniProt P35367); details: 10 uM; n=2
# Sequence of HISTAMINE H1 REC. (P35367 whole entry): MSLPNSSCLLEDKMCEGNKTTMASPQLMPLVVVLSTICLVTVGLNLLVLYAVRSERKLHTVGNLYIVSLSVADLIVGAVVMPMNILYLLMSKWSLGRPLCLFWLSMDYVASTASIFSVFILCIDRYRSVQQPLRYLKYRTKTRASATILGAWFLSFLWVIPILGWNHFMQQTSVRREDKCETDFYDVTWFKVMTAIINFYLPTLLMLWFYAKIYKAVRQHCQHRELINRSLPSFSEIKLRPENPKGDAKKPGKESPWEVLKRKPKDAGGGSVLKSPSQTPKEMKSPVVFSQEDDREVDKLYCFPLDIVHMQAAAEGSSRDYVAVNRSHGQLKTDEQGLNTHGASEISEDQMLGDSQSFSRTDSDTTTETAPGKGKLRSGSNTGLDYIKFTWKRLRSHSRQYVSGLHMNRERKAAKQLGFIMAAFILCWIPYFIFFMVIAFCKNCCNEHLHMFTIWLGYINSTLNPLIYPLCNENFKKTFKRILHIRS
# PPARγ = PPARγ (Homo sapiens, UniProt P37231); details: 10 uM; n=2
# Sequence of PPARγ (P37231 whole entry): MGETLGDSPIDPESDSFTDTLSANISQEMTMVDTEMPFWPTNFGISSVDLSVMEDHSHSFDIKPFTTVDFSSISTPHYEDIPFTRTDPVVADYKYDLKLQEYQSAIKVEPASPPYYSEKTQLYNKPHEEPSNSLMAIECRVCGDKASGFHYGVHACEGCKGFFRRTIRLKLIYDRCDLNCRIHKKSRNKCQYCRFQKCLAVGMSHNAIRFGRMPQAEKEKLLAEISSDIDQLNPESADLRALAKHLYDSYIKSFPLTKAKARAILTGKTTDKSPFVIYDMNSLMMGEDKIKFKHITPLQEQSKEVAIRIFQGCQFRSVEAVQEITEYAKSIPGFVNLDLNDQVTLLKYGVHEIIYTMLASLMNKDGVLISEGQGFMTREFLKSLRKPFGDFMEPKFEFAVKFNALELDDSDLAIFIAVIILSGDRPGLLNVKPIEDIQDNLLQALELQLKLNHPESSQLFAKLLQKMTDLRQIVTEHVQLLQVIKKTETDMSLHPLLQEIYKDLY
# α1A-ADRENOCEPTOR = α1A-ADRENOCEPTOR (Homo sapiens, UniProt P35348); details: 10 uM; n=2
# HISTAMINE H3 REC. = HISTAMINE H3 REC. (Homo sapiens, UniProt Q9Y5N1); details: 10 uM; n=2
# Sequence of HISTAMINE H3 REC. (Q9Y5N1 whole entry): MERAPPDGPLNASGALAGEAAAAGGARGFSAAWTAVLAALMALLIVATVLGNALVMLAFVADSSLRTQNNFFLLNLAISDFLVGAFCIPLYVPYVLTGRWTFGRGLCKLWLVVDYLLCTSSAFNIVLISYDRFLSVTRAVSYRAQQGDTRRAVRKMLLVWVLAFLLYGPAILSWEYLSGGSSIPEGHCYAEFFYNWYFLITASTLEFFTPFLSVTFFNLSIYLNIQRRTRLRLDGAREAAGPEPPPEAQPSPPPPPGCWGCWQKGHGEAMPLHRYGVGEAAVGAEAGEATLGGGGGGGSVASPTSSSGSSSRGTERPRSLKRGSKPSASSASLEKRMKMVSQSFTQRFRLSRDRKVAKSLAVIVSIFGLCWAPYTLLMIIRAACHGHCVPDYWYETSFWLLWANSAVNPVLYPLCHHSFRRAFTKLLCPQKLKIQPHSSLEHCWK
# κ OPIOID REC. = κ OPIOID REC. (Homo sapiens, UniProt P41145); details: 10 uM; n=2
# PHOSPHODIESTERASE 3B = PHOSPHODIESTERASE 3B (Homo sapiens, UniProt Q13370); details: 10 uM; n=2
# ADENOSINE A3 REC. = ADENOSINE A3 REC. (Homo sapiens, UniProt P0DMS8); details: 10 uM; n=2
# Sequence of ADENOSINE A3 REC. (P0DMS8 whole entry): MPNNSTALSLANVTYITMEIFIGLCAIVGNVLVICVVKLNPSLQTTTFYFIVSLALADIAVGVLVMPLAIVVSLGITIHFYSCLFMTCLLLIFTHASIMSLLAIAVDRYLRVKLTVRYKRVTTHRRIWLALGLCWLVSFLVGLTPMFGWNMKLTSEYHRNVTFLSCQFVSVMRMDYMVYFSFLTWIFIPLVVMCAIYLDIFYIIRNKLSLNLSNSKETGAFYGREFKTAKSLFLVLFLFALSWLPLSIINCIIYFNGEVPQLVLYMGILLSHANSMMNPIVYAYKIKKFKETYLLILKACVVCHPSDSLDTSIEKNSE
# GSK-3B = GSK-3B (Homo sapiens, UniProt P49841); details: 10 uM; n=2
# [1] = tested on: closely related brain hydrolases; details: activity-based protein profiling, mouse brain, 10 µM
# DOPAMINE D2 REC. (short) = DOPAMINE D2 REC. (short) (Homo sapiens, UniProt P14416); details: 10 uM; n=2
# 5HT1A = 5HT1A (Homo sapiens, UniProt P08908); details: 10 uM; n=2
# SEROTONIN TRANSPORTER = SEROTONIN TRANSPORTER (Homo sapiens, UniProt P31645); details: 10 uM; n=2
# GSK-3A = GSK-3A (Homo sapiens, UniProt P49840); details: 10 uM; n=2
# Sequence of GSK-3A (P49840 whole entry): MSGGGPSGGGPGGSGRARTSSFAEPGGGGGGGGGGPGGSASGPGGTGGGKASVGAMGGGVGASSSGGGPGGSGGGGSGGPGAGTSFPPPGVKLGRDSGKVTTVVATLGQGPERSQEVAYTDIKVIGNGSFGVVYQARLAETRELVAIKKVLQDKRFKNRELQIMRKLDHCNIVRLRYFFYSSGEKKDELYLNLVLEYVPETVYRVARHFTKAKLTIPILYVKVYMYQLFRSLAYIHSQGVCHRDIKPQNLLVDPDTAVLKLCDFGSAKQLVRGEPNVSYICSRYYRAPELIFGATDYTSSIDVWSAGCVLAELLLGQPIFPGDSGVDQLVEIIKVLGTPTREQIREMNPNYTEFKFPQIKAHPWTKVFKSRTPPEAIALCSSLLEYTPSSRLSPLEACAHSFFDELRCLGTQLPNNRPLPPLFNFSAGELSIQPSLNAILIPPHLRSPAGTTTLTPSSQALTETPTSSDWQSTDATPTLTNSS
# A[…]. ENZ. = A[…]. ENZ. (Homo sapiens, UniProt P12821); details: 10 uM; n=2
# human MAGL = molecular target: T1, human MAGL (Homo sapiens, UniProt Q99685); details: = pIC50 - cLogP
# T1 sequence (Q99685 1-303): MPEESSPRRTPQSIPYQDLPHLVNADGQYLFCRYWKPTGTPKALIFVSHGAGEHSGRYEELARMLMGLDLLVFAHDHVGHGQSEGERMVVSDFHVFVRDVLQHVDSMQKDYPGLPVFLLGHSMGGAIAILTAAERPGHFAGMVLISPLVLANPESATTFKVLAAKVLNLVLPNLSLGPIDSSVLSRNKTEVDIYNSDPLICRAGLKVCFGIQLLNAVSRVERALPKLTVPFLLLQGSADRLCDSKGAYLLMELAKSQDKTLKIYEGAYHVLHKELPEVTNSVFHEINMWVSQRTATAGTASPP
# β2-ADRENOCEPTOR = β2-ADRENOCEPTOR (Homo sapiens, UniProt P07550); details: 10 uM; n=2
# Sequence of UniProt P07550 (P07550 whole entry): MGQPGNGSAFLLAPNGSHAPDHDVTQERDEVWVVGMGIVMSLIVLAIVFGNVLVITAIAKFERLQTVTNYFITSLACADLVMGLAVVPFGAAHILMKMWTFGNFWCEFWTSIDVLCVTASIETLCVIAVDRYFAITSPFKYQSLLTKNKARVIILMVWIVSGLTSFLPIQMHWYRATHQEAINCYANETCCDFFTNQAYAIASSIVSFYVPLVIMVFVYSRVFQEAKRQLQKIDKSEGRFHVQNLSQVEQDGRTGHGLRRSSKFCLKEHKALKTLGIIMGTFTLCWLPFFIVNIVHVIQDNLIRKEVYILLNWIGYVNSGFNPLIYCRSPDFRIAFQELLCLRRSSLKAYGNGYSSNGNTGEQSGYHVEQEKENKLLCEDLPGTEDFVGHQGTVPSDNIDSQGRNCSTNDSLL
# ESTROGEN REC. α = ESTROGEN REC. α (Homo sapiens, UniProt P03372); details: 10 uM; n=2
# MONOAMINE OXIDASE-A = MONOAMINE OXIDASE-A (Homo sapiens, UniProt P21397); details: 10 uM; n=2
# PROSTAGLANDIN F REC. = PROSTAGLANDIN F REC. (Homo sapiens, UniProt P43088); details: 10 uM; n=2
# Sequence of UniProt P43088 (P43088 whole entry): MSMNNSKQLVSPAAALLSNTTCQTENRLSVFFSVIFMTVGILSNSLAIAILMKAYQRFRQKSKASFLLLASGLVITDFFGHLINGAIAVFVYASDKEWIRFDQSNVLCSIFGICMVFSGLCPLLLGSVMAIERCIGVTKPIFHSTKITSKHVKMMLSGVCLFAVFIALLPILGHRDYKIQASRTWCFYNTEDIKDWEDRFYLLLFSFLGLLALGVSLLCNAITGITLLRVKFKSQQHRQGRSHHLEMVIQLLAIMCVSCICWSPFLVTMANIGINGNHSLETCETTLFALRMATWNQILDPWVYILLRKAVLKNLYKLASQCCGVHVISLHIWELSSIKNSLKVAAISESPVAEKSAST
# ANDROGEN REC. = ANDROGEN REC. (Homo sapiens, UniProt P10275); details: 10 uM; n=2
# […]. M2 = […]. M2 (Homo sapiens, UniProt P08172); details: 10 uM; n=2
# HISTAMINE H2 REC. = HISTAMINE H2 REC. (Homo sapiens, UniProt P25021); details: 10 uM; n=2
# μ OPIOID REC. = μ OPIOID REC. (Homo sapiens, UniProt P35372); details: 10 uM; n=2
# ABL1 = ABL1 (Homo sapiens, UniProt P00519); details: 10 uM; n=2
# 5HT2B = 5HT2B (Homo sapiens, UniProt P41595); details: 10 uM; n=2
# Sequence of 5HT2B (P41595 whole entry): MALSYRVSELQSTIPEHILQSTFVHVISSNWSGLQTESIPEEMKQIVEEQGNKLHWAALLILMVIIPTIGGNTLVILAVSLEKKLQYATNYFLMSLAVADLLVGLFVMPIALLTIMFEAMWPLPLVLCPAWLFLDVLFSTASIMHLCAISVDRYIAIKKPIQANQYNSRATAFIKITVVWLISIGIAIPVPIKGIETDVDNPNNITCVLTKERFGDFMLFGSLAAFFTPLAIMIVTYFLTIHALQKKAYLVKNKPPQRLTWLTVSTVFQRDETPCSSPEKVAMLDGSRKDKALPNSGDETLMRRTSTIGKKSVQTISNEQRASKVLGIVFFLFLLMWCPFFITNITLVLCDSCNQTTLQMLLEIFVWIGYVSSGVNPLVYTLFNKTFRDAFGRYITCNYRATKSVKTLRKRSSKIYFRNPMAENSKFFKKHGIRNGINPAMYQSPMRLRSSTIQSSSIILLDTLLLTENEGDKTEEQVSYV
# α2A-ADRENOCEPTOR = α2A-ADRENOCEPTOR (Homo sapiens, UniProt P08913); details: 10 uM; n=2
# Sequence of UniProt P08913 (P08913 whole entry): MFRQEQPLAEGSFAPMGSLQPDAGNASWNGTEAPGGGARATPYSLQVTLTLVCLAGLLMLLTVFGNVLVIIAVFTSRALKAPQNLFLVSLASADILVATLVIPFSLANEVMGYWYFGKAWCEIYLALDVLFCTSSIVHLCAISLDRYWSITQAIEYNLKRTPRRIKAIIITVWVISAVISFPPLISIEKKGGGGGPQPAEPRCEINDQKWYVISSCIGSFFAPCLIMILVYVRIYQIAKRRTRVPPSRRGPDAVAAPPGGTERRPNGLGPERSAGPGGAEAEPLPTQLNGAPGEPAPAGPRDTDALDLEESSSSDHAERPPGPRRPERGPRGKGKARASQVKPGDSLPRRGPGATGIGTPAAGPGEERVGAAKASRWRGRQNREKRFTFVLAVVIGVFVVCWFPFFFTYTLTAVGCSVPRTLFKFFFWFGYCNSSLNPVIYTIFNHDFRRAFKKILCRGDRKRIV
# DOPAMINE D1 REC. = DOPAMINE D1 REC. (Homo sapiens, UniProt P21728); details: 10 uM; n=2
# β1-ADRENOCEPTOR = β1-ADRENOCEPTOR (Homo sapiens, UniProt P08588); details: 10 uM; n=2
smiles,measurement,setting,value
O=C(c1ccc2nc(-c3cnccc3C3(C4CCC4)CC3)oc2c1)N1CCN(c2nc3nc(Cl)ccc3o2)CC1 [Compound 27],ANGIOTENSIN II REC. 1 percent activity or inhibition compared to the assay reference,ANGIOTENSIN II REC. 1,-1%
same,CYCLO OXYGENASE 2 percent activity or inhibition compared to the assay reference,CYCLO OXYGENASE 2,6%
same,HIV-1 PROTEASE percent activity or inhibition compared to the assay reference,HIV-1 PROTEASE,34%
same,ACETYLCHOLINESTERASE percent activity or inhibition compared to the assay reference,ACETYLCHOLINESTERASE,-4%
same,ZAP70 percent activity or inhibition compared to the assay reference,ZAP70,-15%
same,C[…]. CB1 percent activity or inhibition compared to the assay reference,C[…]. CB1,18%
same,5HT2A percent activity or inhibition compared to the assay reference,5HT2A,12%
same,CHOLECYSTOKININ 1 REC. percent activity or inhibition compared to the assay reference,CHOLECYSTOKININ 1 REC.,4%
same,[…]. M1 percent activity or inhibition compared to the assay reference,[…]. M1,52%
same,HISTAMINE H1 REC. percent activity or inhibition compared to the assay reference,HISTAMINE H1 REC.,48%
same,PPARγ percent activity or inhibition compared to the assay reference,PPARγ,9%
same,α1A-ADRENOCEPTOR percent activity or inhibition compared to the assay reference,α1A-ADRENOCEPTOR,5%
same,HISTAMINE H3 REC. percent activity or inhibition compared to the assay reference,HISTAMINE H3 REC.,15%
same,κ OPIOID REC. percent activity or inhibition compared to the assay reference,κ OPIOID REC.,48%
same,PHOSPHODIESTERASE 3B percent activity or inhibition compared to the assay reference,PHOSPHODIESTERASE 3B,1%
same,ADENOSINE A3 REC. percent activity or inhibition compared to the assay reference,ADENOSINE A3 REC.,7%
same,GSK-3B percent activity or inhibition compared to the assay reference,GSK-3B,-8%
same,selectivity toward MAGL over off-targets and closely related brain hydrolases,[1],high selectivity
same,DOPAMINE D2 REC. (short) percent activity or inhibition compared to the assay reference,DOPAMINE D2 REC. (short),13%
same,5HT1A percent activity or inhibition compared to the assay reference,5HT1A,28%
same,SEROTONIN TRANSPORTER percent activity or inhibition compared to the assay reference,SEROTONIN TRANSPORTER,1%
same,GSK-3A percent activity or inhibition compared to the assay reference,GSK-3A,30%
same,A[…]. ENZ. percent activity or inhibition compared to the assay reference,A[…]. ENZ.,-12%
same,Lipophilic efficiency (LipE),human MAGL,3.72
same,β2-ADRENOCEPTOR percent activity or inhibition compared to the assay reference,β2-ADRENOCEPTOR,-2%
same,ESTROGEN REC. α percent activity or inhibition compared to the assay reference,ESTROGEN REC. α,-20%
same,MONOAMINE OXIDASE-A percent activity or inhibition compared to the assay reference,MONOAMINE OXIDASE-A,-2%
same,PROSTAGLANDIN F REC. percent activity or inhibition compared to the assay reference,PROSTAGLANDIN F REC.,0%
same,ANDROGEN REC. percent activity or inhibition compared to the assay reference,ANDROGEN REC.,-6%
same,[…]. M2 percent activity or inhibition compared to the assay reference,[…]. M2,76%
same,HISTAMINE H2 REC. percent activity or inhibition compared to the assay reference,HISTAMINE H2 REC.,-4%
same,μ OPIOID REC. percent activity or inhibition compared to the assay reference,μ OPIOID REC.,16%
same,ABL1 percent activity or inhibition compared to the assay reference,ABL1,-3%
same,5HT2B percent activity or inhibition compared to the assay reference,5HT2B,10%
same,α2A-ADRENOCEPTOR percent activity or inhibition compared to the assay reference,α2A-ADRENOCEPTOR,0%
same,DOPAMINE D1 REC. percent activity or inhibition compared to the assay reference,DOPAMINE D1 REC.,-2%
same,β1-ADRENOCEPTOR percent activity or inhibition compared to the assay reference,β1-ADRENOCEPTOR,4%
